Measurements reported in the NIST ThermoML archive (doi:10.1021/je400471m).
Numbers after ± are expanded uncertainties. Blank lines part the entries; values can stand above or below the compound they belong to.

How the values were obtained:
[1] = refractive index (Na D-line) (dimensionless); wn = mass fraction of the nth substance listed; settings: 338.15 K, 98 kPa, Liquid, Standard Abbe refractometry
[2] = refractive index (Na D-line) (dimensionless); settings: 338.15 K; 98 kPa; Liquid; Standard Abbe refractometry

refractive index ([1]; w1 = 0.2189): 1.3687 ± 0.0096 | refractive index ([1]; w1 = 0.3592): 1.3945 ± 0.0096 | refractive index ([1]; w1 = 0.4567): 1.4159 ± 0.0096 | refractive index ([1]; w1 = 0.5286): 1.4339 ± 0.0096 | refractive index ([1]; w1 = 0.5759): 1.4393 ± 0.0096 | refractive index ([1]; w1 = 0.579): 1.4413 ± 0.0096 | refractive index ([1]; w1 = 0.5836): 1.4428 ± 0.0096
Structure (SMILES): O=C(CO)[C@@H](O)[C@H](O)[C@H](O)CO [D-fructose] + O

refractive index ([1]; w1 = 0.2): 1.3363 ± 0.0096 | refractive index ([1]; w1 = 0.4): 1.3415 ± 0.0096 | refractive index ([1]; w1 = 0.6): 1.3569 ± 0.0096 | refractive index ([1]; w1 = 0.9): 1.3587 ± 0.0096
Structure (SMILES): CCO [ethanol] + O

refractive index [2]: 1.323 ± 0.0096
Structure (SMILES): O [water]
